Reference: US20220042033A1, “COMPOSITION AND METHOD FOR CONFERRING AND/OR ENHANCING TOLERANCE AGAINST HERBICIDES BY USING VARIANTS OF PPO” (FarmHannong Co., Ltd., priority 2017, published 2022)

Tests used:
[1] = biological target: Auxenochlorella protothecoides ApPPO1 (SEQ ID NO: 1) variant F209A, fused to MBP (Auxenochlorella protothecoides, UniProt A0A087SQM0, F209A); test: PPO enzyme inhibition assay (IC50), MBP-fused PPO; type: biochemical
Experimental: (§1) Thus, PPO proteins of wild type and variants were expressed as fused to MBP and were used for experiments.
(§2) The following process for purification of PPO protein was performed in a 4° C. cold room. […] The column was washed with 3 column volumes of buffer and the presence of protein in the washing solution was examined. When the protein was no longer detected, the washing procedure was terminated. Then, the MBP-PPO protein was eluted with approximately 2 column volumes of buffer containing 20 mM maltose. The protein concentration of each eluent was determined and the elution was stopped when the protein was no longer detected. Ten microliter of each fraction was investigated for protein quantification and SDS-PAGE analysis. […]
(§3) Hundred and eighty microliters of a reaction mixture containing the purified PPO protein were placed in 96 well plates and 20 μl of purified PPO proteins were added. […] The reaction proceeded at room temperature for 30 min and the fluorescence of protoporphyrin IX was measured using Microplate reader (Sense, Hidex) (excitation: 405 nm; emission: 633 nm). […] To this, 2.7 N HCl was added, and the absorbance at 408 nm was measured. A standard curve was generated using standard protoporphyrin IX, and PPO activity was measured by calibration of protoporphyrin IX using the standard curve of protoporphyrin IX.

[2] = biological target: Auxenochlorella protothecoides ApPPO1 (SEQ ID NO: 1) variant A215C, fused to MBP (Auxenochlorella protothecoides, UniProt A0A087SQM0, A215C); test: PPO enzyme inhibition assay (IC50), MBP-fused PPO; type: biochemical
Experimental: as §1, §2, §3

[3] = biological target: Auxenochlorella protothecoides ApPPO1 (SEQ ID NO: 1) variant L389T, fused to MBP (Auxenochlorella protothecoides, UniProt A0A087SQM0, L389T); test: PPO enzyme inhibition assay (IC50), MBP-fused PPO; type: biochemical
[4] = biological target: T1, Myxococcus xanthus MxPPO (SEQ ID NO: 3) variant R95A, fused to MBP (Myxococcus xanthus, UniProt P56601, R95A); test: biochemical
T1 construct: For encoding the PPO protein (MxPPO); made in house; host or cells: BL21 CodonPlus(DE3) E. coli

[5] = biological target: T2, Myxococcus xanthus MxPPO (SEQ ID NO: 3) variant I168C, fused to MBP (Myxococcus xanthus, UniProt P56601, I168C); test: PPO enzyme inhibition assay (IC50), MBP-fused PPO (Table 15); type: biochemical
T2 construct: For encoding the PPO protein (MxPPO); made in house; host or cells: BL21 CodonPlus(DE3) E. coli

[6] = tested on: E. coli BT3(ΔPPO) transformed with Auxenochlorella protothecoides ApPPO1 (SEQ ID NO: 1) variant V360M (VM); test: Herbicide tolerance test in PPO-deficient E. coli BT3(ΔPPO), growth on plates; type: cell-based; conditions: Table 7, light, 37° C., 16 to 20 hours, vs wild type at highest herbicide concentration
Experimental: (§4) The mutated CyPPO gene obtained from the Example 2 was transformed to BT3 (ΔPPO) strain which is deficient of PPO activity and cultured in LB media with PPO-inhibiting herbicide, thereby examining whether growth of transformed BT3 was not inhibited.
(§5) BT3 competent cells were transformed with the pET303-ApPPO1 and pET303-MxPPO plasmids and those with a mutation(s) constructed in Example 2 respectively, and were cultured in LB agar media containing carbenicillin (Gold Biotechnology, Co., Ltd.).
(§6) Single colony of E. coli transformed with each CyPPO gene was cultured in 3 ml of LB broth containing carbenicillin overnight, and then was subcultured until absorbance (OD600) reached 0.5 to 1. Then, it was diluted with LB broth to OD600=0.5. Again, the diluted solution was serially diluted 4 times by a factor of one tenth.
(§7) The LB agar media (LB 25 g/l, Bacto agar 15 g/l) containing carbenicillin (100 μg/ml) and 0 to 4,000 μM of various herbicides dissolved in DMSO was prepared. Next, 10 μl of each diluted solution was dropped on the plate and cultured at 37° C. under light (Tables 7, 9 and 10, FIGS. 2 to 6, 13 to 20) or dark (Tables 8 and 11, FIGS. 7 to 12, 21 to 24) for 16 to 20 hours. Then, the extent of tolerance was evaluated.
(§8) The extent of herbicide tolerance of the ApPPO1 or MxPPO mutated genes was evaluated by comparing that of mutated genes with that of ApPPO1 or MxPPO wild type. The relative tolerance was represented with “+” as a factor of 10 times.
(§9) In Tables 7 to 11, tolerance level was presented as ‘−’ of tolerance of wild type and of variants equivalent to that of wild type, and was done as ‘+’ per each 10 fold resistance until ‘+++++’ as maximal resistance. […] A dilution series (OD600=0.5, 0.05, 0.005, 0.0005, 0.00005) was made and spotted on LB agar plates supplemented with herbicides.

[7] = tested on: E. coli BT3(ΔPPO) transformed with Auxenochlorella protothecoides ApPPO1 (SEQ ID NO: 1) variant Y422C (YC); test: as above; type: cell-based; conditions: Table 7, light, 37° C., 16 to 20 hours, vs wild type at highest herbicide concentration
Experimental: as §4, §5, §6, §7, §8, §9

[8] = tested on: E. coli BT3(ΔPPO) transformed with Auxenochlorella protothecoides ApPPO1 (SEQ ID NO: 1) variant Y422I (YI); type: cell-based; conditions: Table 7, light, 37° C., 16 to 20 hours, vs wild type at highest herbicide concentration
Experimental: as §4, §5, §6, §7, §8, §9

[9] = tested on: E. coli BT3(ΔPPO) transformed with Myxococcus xanthus MxPPO (SEQ ID NO: 3) variant A170C; test: Herbicide tolerance test in PPO-deficient E. coli BT3(ΔPPO), growth on plates; type: cell-based; conditions: Table 9, light, tiafenacil to 2000 μM, saflufenacil to 200 μM, flumioxazin to 100 μM
Experimental: as §4, §5, §6, §7
(§10) The extent of herbicide tolerance of the ApPPO1 or MxPPO mutated genes was evaluated by comparing that of mutated genes with that of ApPPO1 or MxPPO wild type. […]

[10] = tested on: E. coli BT3(ΔPPO) transformed with Myxococcus xanthus MxPPO (SEQ ID NO: 3) variant I311M; test: as above; type: cell-based; conditions: Table 9, light, tiafenacil to 2000 μM, saflufenacil to 200 μM, flumioxazin to 100 μM
Experimental: as §4, §5, §6, §7, §10

[11] = tested on: wild type A. thaliana (Col-0 ecotype); test: Herbicide spray test on 4-week-old plants, wild type; type: in vivo, Arabidopsis thaliana; conditions: 100 ml of 1 μM tiafenacil and 0.05% Silwet L-77 per 0.24 m^2; within 7 days
Experimental: In order to examine PPO-inhibiting herbicide tolerance of the transgenic plants, 4-week-old plants were evenly sprayed with herbicide (100 ml of 1 μM tiafenacil and 0.05% Silwet L-77 (v/v)) in 40×60 cm area (0.24 m^2).

[12] = tested on: transgenic A. thaliana transformed with ApPPO1 variants, MxPPO or MxPPO variants; test: Herbicide spray test on 4-week-old plants, transgenic; type: in vivo, Arabidopsis thaliana; conditions: 100 ml of 1 μM tiafenacil and 0.05% Silwet L-77 per 0.24 m^2
From the text: A. thaliana was transformed with a binary vector having ORF of a selectable marker, Bar gene (glufosinate-tolerant gene), and ORF of each gene of ApPPO1 variants, MxPPO, and MxPPO variants. The transgenic plant was examined for cross-tolerance towards glufosinate and PPO-inhibiting herbicides. The bar gene was also used to examine whether the transgene was stably inherited during generations. NOS promoter and E9 terminator were used for bar gene expression.
In order to express proteins of ApPPO1 variants, MxPPO, and MxPPO variants in plants, a CaMV35S promoter and a NOS terminator were used. Encoding genes of ApPPO1 variants, MxPPO, and MxPPO variants were introduced into binary vector using XhoI and BamHI restriction enzymes. Furthermore, for confirmation of the protein expression, hemagglutinin (HA) tag was fused to the C-terminal region of PPO protein coding gene using BamHI and SacI restriction enzymes. […]
Each transformed Agrobacterium was screened in spectinomycin-containing LB media. […] After Agrobacterium cell was harvested from the culture media, it was resuspended in the solution containing 5% sucrose (w/v) and 0.05% Silwet L-77 (v/v) (Momentive Performance Materials Co., Ltd.) at an absorbance (OD600) of 0.8. […]

T2 sequence (P56601 whole entry I168C, the tested form may be a part): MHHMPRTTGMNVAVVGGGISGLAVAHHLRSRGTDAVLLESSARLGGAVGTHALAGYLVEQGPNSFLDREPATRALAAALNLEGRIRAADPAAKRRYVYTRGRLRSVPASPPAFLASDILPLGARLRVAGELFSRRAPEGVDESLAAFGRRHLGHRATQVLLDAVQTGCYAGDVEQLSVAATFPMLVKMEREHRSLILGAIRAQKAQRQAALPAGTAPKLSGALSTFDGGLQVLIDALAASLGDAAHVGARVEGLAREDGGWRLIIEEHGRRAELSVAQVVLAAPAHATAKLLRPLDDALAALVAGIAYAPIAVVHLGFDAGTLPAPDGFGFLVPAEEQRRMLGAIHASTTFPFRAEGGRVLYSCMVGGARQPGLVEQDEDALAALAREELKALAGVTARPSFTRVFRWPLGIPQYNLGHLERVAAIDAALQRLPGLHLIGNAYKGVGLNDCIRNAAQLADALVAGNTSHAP
T1 sequence (P56601 whole entry R95A, the tested form may be a part): as the sequence (P56601 whole entry I168C, the tested form may be a part) above, with R95A, C168I counted along it
Sequence of Auxenochlorella protothecoides ApPPO1 (SEQ ID NO: 1) variant L389T, fused to MBP (A0A087SQM0 entry or part of it L389T): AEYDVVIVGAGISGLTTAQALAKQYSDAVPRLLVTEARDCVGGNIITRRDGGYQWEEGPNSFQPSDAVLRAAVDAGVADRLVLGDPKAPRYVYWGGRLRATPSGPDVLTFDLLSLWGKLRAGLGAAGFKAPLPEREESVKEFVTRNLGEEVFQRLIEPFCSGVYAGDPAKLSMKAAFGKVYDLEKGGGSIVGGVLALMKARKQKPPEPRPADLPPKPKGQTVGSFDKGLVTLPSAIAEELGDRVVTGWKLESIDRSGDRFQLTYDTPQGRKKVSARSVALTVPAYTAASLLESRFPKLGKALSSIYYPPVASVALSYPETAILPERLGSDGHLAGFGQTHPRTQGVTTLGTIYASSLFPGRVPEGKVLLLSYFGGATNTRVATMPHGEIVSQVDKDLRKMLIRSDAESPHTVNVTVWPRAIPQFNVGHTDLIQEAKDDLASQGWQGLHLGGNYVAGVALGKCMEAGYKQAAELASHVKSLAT
Sequence of Auxenochlorella protothecoides ApPPO1 (SEQ ID NO: 1) variant A215C, fused to MBP (A0A087SQM0 entry or part of it A215C): as the sequence (A0A087SQM0 entry or part of it L389T) above, with A165C, T339L counted along it
Sequence of Auxenochlorella protothecoides ApPPO1 (SEQ ID NO: 1) variant F209A, fused to MBP (A0A087SQM0 entry or part of it F209A): as the sequence (A0A087SQM0 entry or part of it L389T) above, with F159A, T339L counted along it

COC(=O)CCNC(=O)C(C)Sc1cc(-n2c(=O)cc(C(F)(F)F)n(C)c2=O)c(F)cc1Cl (stereo not drawn) [tiafenacil]
IC50 [1]: 69 nM | IC50 [2]: 76 nM | IC50 [3]: 716 nM | IC50 [4]: 2370 nM | IC50 [5]: 550 nM | relative herbicide tolerance level [6]: ++ (10-99 fold higher tolerance) | relative herbicide tolerance level [7]: ++ (10-99 fold higher tolerance) | relative herbicide tolerance level [8]: ++ (10-99 fold higher tolerance) | relative herbicide tolerance level [9]: + (1-9 fold higher tolerance) | relative herbicide tolerance level [10]: ++ (10-99 fold higher tolerance) | plant damage after spraying [11]: completely died within 7 days after treatment | plant damage after spraying [12]: no damage
